The subject of series [1] is FXR regulated genes (SHP, CYP7α1, SREPB-1c, FAS, BSEP). As to conditions: human, 18 h, 10 μM. An excerpt:
Human hepatocyte cell line HepG2 was used for these studies.
The effects of these ligands on FXR responsive genes was then investigated by quantitative reverse transcription PCR (qRT-PCR).

The test system of the next series is HepG2 cells. The series can be described thus: Direct cell toxicity on exposure of HepG2 cells. It is filed as cell-based, human. The conditions noted are these: HepG2 cells exposed to the ligands.
In series [2] the test system is FXR or other nuclear receptors. As to the kind of experiment: Liver cells transfected with viral constructs carrying FXR or other nuclear receptors upstream of the luciferase gene. It is filed as cell-based. As to conditions: mouse, rat, and human hepatocytes, luciferase reporter. (A reporter such as luciferase makes a cellular process visible.)
The target of series [3] is T1, FXR (Homo sapiens, UniProt Q96RI1).
T1 sequence (Q96RI1 1-486): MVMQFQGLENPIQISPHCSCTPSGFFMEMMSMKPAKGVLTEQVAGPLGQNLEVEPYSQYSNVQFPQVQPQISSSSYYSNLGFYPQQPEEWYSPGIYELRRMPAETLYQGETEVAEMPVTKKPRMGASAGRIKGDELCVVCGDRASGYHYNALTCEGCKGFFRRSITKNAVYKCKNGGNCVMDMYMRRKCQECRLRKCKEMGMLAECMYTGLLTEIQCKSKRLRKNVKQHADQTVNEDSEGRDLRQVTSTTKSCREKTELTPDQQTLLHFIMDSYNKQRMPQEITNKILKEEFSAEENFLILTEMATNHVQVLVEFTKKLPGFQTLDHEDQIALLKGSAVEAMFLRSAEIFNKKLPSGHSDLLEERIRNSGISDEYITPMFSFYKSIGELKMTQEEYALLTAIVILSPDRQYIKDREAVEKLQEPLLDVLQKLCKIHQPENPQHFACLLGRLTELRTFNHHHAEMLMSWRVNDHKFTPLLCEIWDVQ
The series can be described thus: Cell-free FRET assay, recruitment of the SRC1 peptide to FXR. Type of series: biochemical. The conditions noted are these: for Potency in activating FXR relative to CDCA (concentration for Scr-1 recruitment lower than CDCA): cell-free FRET assay, versus CDCA. An excerpt:
This technology, a cell free assay, is described in […]., et al. J Med Chem. 2002 15; 45:3569-72).

The target in series [4] is T1, FXR. As to the kind of experiment: Cell transfection (transactivation) assay in HepG2 cell line. It is filed as cell-based. Further details: expressed in transfected cells; host or cells: HepG2. As to conditions: HepG2 cells, 1 μM. The protocol: It was also evaluated if compound (Ia) modulated FXR-regulated genes in a cellular assay using a human hepatocyte cell line (HepG2). […] A detailed description of these methods can be found in the following reference: Fiorucci S., et al. Gastroenterology 2004.

By melting point is commonly meant the temperature of the solid-liquid transition. As a reminder, the EC50 is the midpoint of the concentration-response curve.

Like-named read-outs stand apart in the source and are kept apart here.

On to `C[C@H](CCC(=O)O)[C@H]1CC[C@H]2[C@@H]3[C@H](O)C[C@@H]4C[C@H](O)CC[C@]4(C)[C@H]3CC[C@]12C` [CDCA, chenodeoxycholic acid, reference compound], for which, in series [1], the “Induction of SHP expression” value is reported as 2-3 fold and the “Reduction of the expression of CYP7α1 mRNA” value is on record as 60-70%. In addition, the Direct cell toxicity result with HepG2 cells is reported as “no direct cell toxicity”.
With `CC[C@H]1[C@@H](O)[C@@H]2[C@H](CC[C@]3(C)[C@@H]([C@H](C)CCC(=O)O)CC[C@@H]23)[C@@]2(C)CC[C@@H](O)C[C@@H]12` [Compound 6-ECDCA, 6-ethyl-chenodeoxycholic acid], the Direct cell toxicity entry in the series with HepG2 cells is recorded as “no direct cell toxicity”.
With `C[C@H](CCNC(=O)OC/C=C/c1ccccc1)[C@H]1CCC2C3C(CC[C@@]21C)[C@@]1(C)CC[C@@H](O)CC1C[C@H]3O` (stereo partly drawn) [Compound (Ia), 23-N-Carbacinnamyloxy-3α,7α-dihydroxy-5β-norcholanylamine], the melting point was in the range of 79 to 84 °C. Further, in series [2], the “Selectivity for FXR over other nuclear receptors” value was “selective FXR ligand”. Further, in series [1], the “Induction of BSEP mRNA expression” value is on record as “approximately 13 fold”. Besides, the “Efficacy (relative recruitment of the SRC1 peptide to FXR where CDCA = 100%)” value at FXR [3] (FRET, human FXR, mean ± SE, n = 4) worked out at 66%. The EC50 at FXR [3] (FRET, human FXR, mean ± SE, n = 4, read-out: Cell-Free Assay EC50) is 592 nM. Besides, the “Potency in activating FXR relative to CDCA (concentration for Scr-1 recruitment lower than CDCA)” value on FXR [3] is reported as “approximately 20 fold”. Besides, the “Potency in activating FXR relative to CDCA (concentration for Scr-1 recruitment lower than CDCA)” value on FXR [3] (listed as compound (Ia)) was approximately 20 fold. Moreover, the concentration giving a half-maximal response (EC50) on FXR [3] (concentrations ranging from 1 nM to 100 μM, read-out: EC50 as FXR ligand in cell free FRET assay (Table 2 summary)) was approximately 500 nM. The Direct cell toxicity entry in the series on HepG2 cells is recorded as “no direct cell toxicity”. For the same compound, the “Transactivation of FXR” value at FXR [4] is on record as “transactivation”. On FXR [4] (listed as compound (Ia)), the “Transactivation of FXR” value is given as “transactivates FXR”.

The record behind these values is patent publication US7858608B2, “Bile acid derivatives as FXR ligands for the prevention or treatment of FXR-mediated diseases or conditions” (Intercept Pharmaceuticals, Inc., priority 2006, dated 2010).
